Results published in PubChem BioAssay AID623988 (Vanderbilt High Throughput Screening Facility, 2012).

Target: Voltage-gated inwardly rectifying potassium channel KCNH2 (Homo sapiens) (UniProt Q12809)
Assay: KCNH2 potassium channel blockade – cell-based, thallium flux, concentration-response, selectivity assay for GIRK activator project, dose response (AID 623988)
Conditions: hERG-expressing HEK293 cells, thallium flux fluorescence

Chain of Voltage-gated inwardly rectifying potassium channel KCNH2 (Homo sapiens) (Q12809 whole entry, looked up): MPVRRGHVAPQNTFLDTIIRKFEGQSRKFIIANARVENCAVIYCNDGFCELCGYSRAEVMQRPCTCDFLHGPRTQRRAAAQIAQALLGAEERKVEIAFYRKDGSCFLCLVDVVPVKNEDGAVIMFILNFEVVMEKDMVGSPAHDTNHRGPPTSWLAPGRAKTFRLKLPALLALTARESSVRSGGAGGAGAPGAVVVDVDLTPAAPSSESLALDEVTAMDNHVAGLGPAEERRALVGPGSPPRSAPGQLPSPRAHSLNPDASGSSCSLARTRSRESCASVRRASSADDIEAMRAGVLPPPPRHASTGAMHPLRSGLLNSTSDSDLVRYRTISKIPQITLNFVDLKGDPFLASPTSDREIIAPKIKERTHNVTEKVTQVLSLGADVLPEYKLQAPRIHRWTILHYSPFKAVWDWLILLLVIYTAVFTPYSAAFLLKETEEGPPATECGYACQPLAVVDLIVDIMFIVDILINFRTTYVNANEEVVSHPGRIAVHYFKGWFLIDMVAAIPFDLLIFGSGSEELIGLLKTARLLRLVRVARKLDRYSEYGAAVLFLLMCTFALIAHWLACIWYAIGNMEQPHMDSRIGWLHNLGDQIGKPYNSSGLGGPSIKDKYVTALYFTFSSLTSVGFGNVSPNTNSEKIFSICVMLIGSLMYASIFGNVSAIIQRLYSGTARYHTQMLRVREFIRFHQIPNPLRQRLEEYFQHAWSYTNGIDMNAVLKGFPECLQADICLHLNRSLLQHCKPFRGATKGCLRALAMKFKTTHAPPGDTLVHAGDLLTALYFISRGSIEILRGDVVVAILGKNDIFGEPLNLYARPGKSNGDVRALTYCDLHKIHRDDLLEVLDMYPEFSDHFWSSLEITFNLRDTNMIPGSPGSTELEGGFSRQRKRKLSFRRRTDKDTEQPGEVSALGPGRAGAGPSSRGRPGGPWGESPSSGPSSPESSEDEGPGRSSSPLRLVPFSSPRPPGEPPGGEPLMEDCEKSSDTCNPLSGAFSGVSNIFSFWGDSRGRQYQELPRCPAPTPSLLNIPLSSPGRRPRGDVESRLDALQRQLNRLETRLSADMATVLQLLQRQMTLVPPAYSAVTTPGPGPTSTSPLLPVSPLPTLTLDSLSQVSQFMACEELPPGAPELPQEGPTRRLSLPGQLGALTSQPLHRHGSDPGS

## Cc1cc(NC(=O)Nc2ccc(F)c(F)c2)n(-c2ccccc2)n1
  IC50: 10.8 µM
